Test results: ChEMBL document CHEMBL1153387 (J Med Chem, 2009)
The source made the active and inactive calls. The calls are words filed in the database; no cut-off is given here. Non-standard residues stand in square brackets, D forms with d. Residues, ends and D or L forms follow the SMILES beside them. *: point of attachment. X2 = [N-]=[N+]=N[C@@H](CCCCN)CC(=O)*; NMeR = CN[C@@H](CCCNC(=N)N)C(=O)O; Tle = CC(C)(C)[C@H](N)C(=O)O

Tests used:
Rattus norvegicus [1] = experiment: Hypothermic activity in Sprague-Dawley rat assessed as time duration of maximal body temperature decrease at 5 mg/kg, ip; format: functional; settings: route intraperitoneal
Rattus norvegicus [2] = experiment: Hypothermic activity in Sprague-Dawley rat assessed as decrease in core body temperature at 5 mg/kg, ip at time of maximal body temperature decrease; format: functional; settings: route intraperitoneal
Rattus norvegicus [3] = experiment: Hypothermic activity in Sprague-Dawley rat assessed as decrease in core body temperature at 5 mg/kg, ip measured up to 150 mins; format: functional, organism-based; design: dose 5 mg/kg
[4] = Metabolic stability in human serum assessed as half time of disappearance at 1 mM by MALDI-TOF mass spectrometry assay; format: ADME, cell-free; settings: read-out: T50
[5] = Metabolic stability in rat serum assessed as half time of disappearance at 1 mM by MALDI-TOF mass spectrometry assay; format: ADME, cell-free; settings: read-out: T50
[6] = molecular target: T1, Neurotensin receptor type 1 (Homo sapiens, UniProt P30989); experiment: Displacement of [125I]I-Tyr(3)NT from human NTR1
[7] = molecular target: T1, Neurotensin receptor type 1; experiment: Agonist activity at NTR1 in human HT-29 cells assessed as increase in intracellular calcium concentration by FLIPR assay; format: functional, cell-based
[8] = molecular target: T1, Neurotensin receptor type 1; experiment: Binding affinity to human NTR1
Serum [9] = experiment: Metabolic stability in human serum assessed as compound degradation rate at 1 mM by MALDI-TOF mass spectrometry assay; format: ADME, cell-free; settings: 1000 µM
Serum [10] = experiment: Metabolic stability in rat serum assessed as compound degradation rate at 1 mM by MALDI-TOF mass spectrometry assay; format: ADME, cell-free; settings: 1000 µM

T1 sequence (P30989 whole entry): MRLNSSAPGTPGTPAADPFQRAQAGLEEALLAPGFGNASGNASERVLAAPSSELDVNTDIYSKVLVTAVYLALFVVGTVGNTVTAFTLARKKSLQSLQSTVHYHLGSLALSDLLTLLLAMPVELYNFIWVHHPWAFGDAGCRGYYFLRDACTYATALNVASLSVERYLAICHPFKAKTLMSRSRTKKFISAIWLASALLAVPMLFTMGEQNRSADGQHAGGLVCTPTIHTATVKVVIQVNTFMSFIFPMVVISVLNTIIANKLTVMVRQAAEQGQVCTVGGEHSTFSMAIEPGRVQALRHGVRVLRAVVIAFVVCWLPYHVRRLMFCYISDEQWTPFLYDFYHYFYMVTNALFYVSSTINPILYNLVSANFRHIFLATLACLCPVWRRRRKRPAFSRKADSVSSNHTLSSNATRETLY

SMILES	Time (Rattus norvegicus [1]) [min]	Activity (Rattus norvegicus [2]) [°C]	Activity (Rattus norvegicus [3])	half-life at 1000 µM [4] [h]	half-life at 1000 µM [5] [h]	IC50 [6] [nM]	Ki [6] [nM]	EC50 [7] [nM]	Ki [8] [nM]	Activity (Serum [9]) [µmol/min]	Activity (Serum [10]) [µmol/min]
O=C(CCCN1CCC(O)(c2ccc(Cl)cc2)CC1)c1ccc(F)cc1 [HALOPERIDOL]	90	-1.34	Active	–	–	–	–	–	–	–	–
CC(C)C[C@H](NC(=O)[C@@H](NC(=O)[C@H](Cc1ccc(O)cc1)NC(=O)[C@@H]1CCCN1C(=O)[C@H](CCCNC(=N)N)NC(=O)C[C@H](CCCCN)N=[N+]=[N-])C(C)(C)C)C(=O)O (X2-RPY[Tle]L-OH)	120	-2.57	–	62.7	52	7.32	5.49	7.28	4.5	0.133	0.16
CN[C@@H](CCCNC(=N)N)C(=O)N[C@@H](CCCCN)C(=O)N1CCC[C@H]1C(=O)N[C@@H](Cc1c[nH]c2ccccc12)C(=O)N[C@H](C(=O)N[C@@H](CC(C)C)C(=O)O)C(C)(C)C (H-[NMeR]KPW[Tle]L-OH)	270	-5.52	–	123	162	240	180	200	95	0.068	0.052
